The values below come from patent US6486146B1, “Cancer accelerants and phase synchronization methods” (priority 2000, dated 2002).

Like-named read-outs stand apart in the source and are kept apart here.

One series has as its system colon cancer tumor. Description: Mathematical model of tumor size until lethal burden using 32% kill rate. Conditions: at both doses (125 mg and 100 mg), inferred from fit of the model to observed survival.
Series [1] concerns gastrointestinal epithelial cells. Kind of series: Expected kill of gastrointestinal epithelium from terminal half life versus cell cycle time.
The test system of a further series is colon cancer. To be noted: cited from earlier work.
The target in the next series is T1, topoisomerase I (Homo sapiens, UniProt P11387).
T1 sequence (P11387 1-765): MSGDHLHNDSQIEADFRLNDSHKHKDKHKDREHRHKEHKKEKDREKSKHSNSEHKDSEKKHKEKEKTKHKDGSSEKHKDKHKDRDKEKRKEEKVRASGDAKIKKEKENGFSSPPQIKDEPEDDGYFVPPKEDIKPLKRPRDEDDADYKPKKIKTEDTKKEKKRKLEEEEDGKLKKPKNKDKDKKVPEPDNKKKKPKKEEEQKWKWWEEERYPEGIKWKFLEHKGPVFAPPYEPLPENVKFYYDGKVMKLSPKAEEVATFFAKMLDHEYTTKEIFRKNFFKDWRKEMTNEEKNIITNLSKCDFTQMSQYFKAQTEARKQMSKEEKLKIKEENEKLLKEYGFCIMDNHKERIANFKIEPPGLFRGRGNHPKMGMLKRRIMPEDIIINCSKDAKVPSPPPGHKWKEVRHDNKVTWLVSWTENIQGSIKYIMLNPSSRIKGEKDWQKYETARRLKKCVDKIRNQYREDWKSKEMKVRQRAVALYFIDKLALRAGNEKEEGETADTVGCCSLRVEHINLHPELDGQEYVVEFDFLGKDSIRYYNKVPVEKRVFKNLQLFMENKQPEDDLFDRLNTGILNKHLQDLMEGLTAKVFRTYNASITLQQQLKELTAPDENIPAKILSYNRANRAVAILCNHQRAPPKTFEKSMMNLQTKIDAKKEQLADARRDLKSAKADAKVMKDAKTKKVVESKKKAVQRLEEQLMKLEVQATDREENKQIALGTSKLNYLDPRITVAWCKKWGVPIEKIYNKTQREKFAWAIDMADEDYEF
To be noted: SN-38 versus irinotecan; cited from earlier work.

Series [2] deals with metastatic breast cancer that possesses estrogen receptors. Kind of series: Example 4 patient, prior art doxorubicin regimen, tumor size. It is filed as in vivo. To be noted: 30 mg/m2 once per week for 4 weeks, 3 cycles; illustrative patient example.

With `CCc1c2c(nc3ccc(OC(=O)N4CCC(N5CCCCC5)CC4)cc13)-c1cc3c(c(=O)n1C2)COC(=O)[C@]3(O)CC` [Camptosar, irinotecan], in the series on colon cancer tumor, the S-Phase kill rate was around 100%. For the same compound, the “mortality to gastrointestinal epithelium” value in series [1] (present invention LD 60) is on record as 65%. The gastrointestinal epithelium killed in series [1] (prior art LD 125 mg) is listed as 95%. In addition, the median survival observed with colon cancer (100 mg once every 7 days for 4 weeks, 2 weeks off, 2 cycles, months x 30 days) is 279 days; in the series with colon cancer (100 mg regimen), 9.3 mo; in the series on colon cancer (125 mg once every 7 days for 4 weeks, 2 weeks off, 3 cycles, months x 30 days) it was 321 days; in the series with colon cancer (125 mg regimen) it was 10.7 mo.

For `CCc1c2c(nc3ccc(O)cc13)-c1cc3c(c(=O)n1C2)COC(=O)[C@]3(O)CC` [SN-38], at topoisomerase I, the “potency as a topoisomerase inhibitor relative to irinotecan” value is recorded as ~1,000 times.

For the compound `COc1cccc2c1C(=O)c1c(O)c3c(c(O)c1C2=O)C[C@@](O)(C(=O)CO)C[C@@H]3O[C@H]1C[C@H](N)[C@H](O)[C@H](C)O1` [doxorubicin], the “reduction in tumor size after the regimen” value in series [2] is recorded as 32%.
